This is an account of results in article PMC9573353 (Molecules, 2022).

The conditions of data set [1]: previously tested; read-out: DPPH IC50; cited from earlier work.
The target of data set [2] is Acetylcholinesterase (AChE) (Electrophorus electricus, UniProt O42275). As to the kind of experiment: biochemical. Format: biochemical. Particulars: mean ± standard deviation, triplicate; '-' = no inhibitory activity.
In data set [3] the target is butyrylcholinesterase (BChE) (Equus caballus, UniProt P81908). As to the kind of experiment: biochemical. Format: biochemical. The note with it: mean ± standard deviation, triplicate.
Chain of butyrylcholinesterase (BChE) (P81908 whole entry): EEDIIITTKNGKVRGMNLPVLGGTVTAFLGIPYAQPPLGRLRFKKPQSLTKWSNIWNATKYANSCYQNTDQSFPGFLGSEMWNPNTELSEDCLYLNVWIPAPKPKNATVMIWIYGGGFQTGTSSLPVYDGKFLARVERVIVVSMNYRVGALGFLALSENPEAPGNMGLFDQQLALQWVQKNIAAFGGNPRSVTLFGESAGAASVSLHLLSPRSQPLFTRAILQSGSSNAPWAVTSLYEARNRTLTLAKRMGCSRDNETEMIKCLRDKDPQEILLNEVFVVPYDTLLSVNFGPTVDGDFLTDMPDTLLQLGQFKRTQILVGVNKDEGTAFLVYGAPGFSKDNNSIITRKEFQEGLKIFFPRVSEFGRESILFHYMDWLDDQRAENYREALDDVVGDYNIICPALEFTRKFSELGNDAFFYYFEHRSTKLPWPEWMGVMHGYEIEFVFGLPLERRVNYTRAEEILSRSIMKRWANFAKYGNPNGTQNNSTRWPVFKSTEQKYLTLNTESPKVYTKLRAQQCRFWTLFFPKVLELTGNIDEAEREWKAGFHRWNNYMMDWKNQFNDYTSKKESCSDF
Data set [4] can be described thus: Fe3+ complex formation constants by spectrophotometric titration (PSEQUAD). Format: physicochemical. The note with it: for Apparent formation constant lgK'FeL, Fe^3+ + HL ⇌ FeL^2+ + H^+: 1:1 complex; for Formation constant lgKFeL, Fe^3+ + L^− ⇌ FeL^2+: sum of apparent formation constant and protonation constant. The method, then:
Since Fe^3+ ions strongly hydrolyze, acidic solutions were applied for the spectrophotometric titrations to determine the complex formation constants. Both types of titrations were carried out: increasing the iron(III) concentration at constant ligand concentration and increasing ligand concentration at constant CFe(III).
(§1) The third one in this equilibrium system must be a complex between the previous two species. Detailed fitting studies by application of the PSEQUAD program confirmed the existence of a complex with a 1:1 (FeL^2+) composition. Furthermore, the apparent formation constant of these species (for the reaction Fe^3+ + HL ⇌ FeL^2+ + H^+) and the individual spectrum of the species could be estimated by this procedure. […] The apparent formation constant determined from this spectrum series and that regarding the titration with the ligand was lgK’FeL = 4.75 ± 0.10. Using this apparent formation constant, the molar fractions of the free Fe^3+ and the 1:1 complex could be calculated as functions of the (protonated) ligand concentration (pHL), as shown by the inset of Figure 12a. Since the spectrophotometric titration was carried out in an acidic solution, in order to estimate the formation constant for the Fe^3+ + L^− ⇌ FeL^2+ reaction, the protonation constant of the deprotonated ligand (L^−) was also determined (by potentiometric titration, starting from the fully deprotonated form at pH = 10, Figure 13), lgK1 = 7.81 ± 0.15. The sum of the apparent formation constant and the protonation constant gives the equilibrium constant regarding the reaction above (lgKFeL = 12.56 ± 0.15).
(§2) The protonation and complex formation constants were determined similarly for the other three compounds. The corresponding figures can be found in the Supplementary Materials (Figures S67 and S68 for cis-2, Figures S69 and S70 for cis-4, and Figures S71 and S72 for trans-1). In the case of trans-1, two protonation steps were observed due to the two OH groups. For calculating the formation constant, lgK2 was taken into account, corresponding to the proton in the OH group on the pyranone ring. This can be exchanged by the Fe^3+ ion easier than the other proton in the phenolic moiety.
Two titration series were used to determine the stability constants of equilibrium systems containing Fe^3+ and ligand. The iron(III) content was increased at constant ligand content, the ligand concentration was increased at constant Fe(III) content, and the spectral changes were recorded with a Specord S600 spectrophotometer (Analytic Jena GmbH, Jena, Germany) in the 190–900 nm wavelength range. […] The two series were evaluated together using PSEQUAD software in the 210–430 nm range.

A short description of data set [5]: DPPH radical scavenging assay. Particulars: 30 min at 25 °C; '-' = did not capture the radical. The method, then: Antioxidant activity of the tested compounds was measured in terms of hydrogen donating or radical scavenging ability using the stable radical 2,2′-diphenyl-1-picrylhydrazyl (DPPH). The 50 μL of various concentrations of tested solutions (5 μM–1000 μM) were placed in a cuvette, 1 mL of ethanolic solution of DPPH was added, and the final DPPH concentration was kept constant (c = 8 × 10^−4 M). The mixture was incubated for 30 min at 25 °C. […] All determinations were performed in triplicate. The concentrations of tested compounds were expressed as final concentrations. Inhibition of DPPH expressed in percentage was calculated according to the equation:(2) Inhibition (%)=AC(0)−AC(t)/AC(0)·100 where AC(0) is the absorbance of the control at t = 0 min, and AC(t) is the absorbance of the antioxidant at t = 30 min. Data were used to calculate the IC50 value by a nonlinear fit of compound concentration values vs. inhibition percentage.

Data set [6] is described as follows: Protonation constants by potentiometric titration with spectrophotometric detection. The note with it: for Protonation constant lgK1: titration from pH 10, for trans-1 first of two protonation steps. The class given is physicochemical.
Text: as §1, §2
A 0.01–0.01 M phosphate–borate–acetate buffer solution was used for potentiometric titration. A 50 cm^3 beaker was filled with 25 cm^3 of buffer solution containing the appropriate amount of ligand, and the pH was adjusted to 10.0 by adding 2 M NaOH solution. The pH was determined using a Consort C3010 multi-parameter analyzer (Consort bvba, Turnhout, Belgium) equipped with a combined glass electrode. The solution was circulated with an IKA PA-SF (IKA Labortechnik, Staufen, Germany) peristaltic pump through a Hellma (176.000-QS 10 mm) flow through the cuvette. Titration was carried out with 6 M H2SO4 solution. The spectra were recorded with a Specord S600 spectrophotometer after pH stabilization.

Where two headings read alike, the source gives them in different places. Bounds are passed on as bounds.

Chain of Acetylcholinesterase (AChE) (O42275 24-633): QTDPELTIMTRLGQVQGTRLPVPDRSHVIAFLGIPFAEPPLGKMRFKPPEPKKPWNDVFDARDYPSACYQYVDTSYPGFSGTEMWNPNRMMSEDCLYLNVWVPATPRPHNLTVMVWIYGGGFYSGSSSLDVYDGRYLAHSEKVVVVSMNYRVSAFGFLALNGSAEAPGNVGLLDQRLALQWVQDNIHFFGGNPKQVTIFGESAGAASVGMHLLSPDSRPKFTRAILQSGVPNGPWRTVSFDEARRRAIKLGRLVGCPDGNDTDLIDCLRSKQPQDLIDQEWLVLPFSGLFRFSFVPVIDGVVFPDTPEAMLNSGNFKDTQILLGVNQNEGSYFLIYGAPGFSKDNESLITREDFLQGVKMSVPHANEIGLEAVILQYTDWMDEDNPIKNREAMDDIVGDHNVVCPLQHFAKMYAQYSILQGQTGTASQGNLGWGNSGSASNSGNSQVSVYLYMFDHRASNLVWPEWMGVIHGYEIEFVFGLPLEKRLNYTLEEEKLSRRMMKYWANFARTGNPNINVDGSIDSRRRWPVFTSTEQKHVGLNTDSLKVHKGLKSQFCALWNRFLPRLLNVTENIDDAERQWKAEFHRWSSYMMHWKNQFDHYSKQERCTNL

With `Oc1ccc(/C=C/c2cccs2)c(O)c1` [III], the IC50 in data set [1] was 26.8 µM; in data set [2], 46.6 ± 8.3 µM; in data set [3] it was 5.3 ± 1.8 µM.
Turning to `Oc1ccccc1/C=C/c1cccs1` [II], the half-inhibitory concentration (IC50) in data set [1] is 159 µM; in data set [2] it was 15.7 ± 1 µM; in data set [3] it was 4.6 ± 0.1 µM.
Consider `O=c1cc(/C=C\c2ccccc2C(F)(F)F)occ1O` [cis-2, (Z)-5-hydroxy-2-(2-(trifluoromethyl)styryl)-4H-pyran-4-one], for which, in data set [4] (acidic solution), the “Apparent formation constant lgK'FeL, Fe^3+ + HL ⇌ FeL^2+ + H^+” value (shortened to “Apparent formation constant lgK'FeL”) was found to be 4.38 ± 0.20. Moreover, the IC50 is greater than 1000 µM in data set [5], greater than 1000 µM in data set [2] and 458 ± 30.2 µM in data set [3]. For the same compound, the “Protonation constant lgK1” value in data set [6] stood at 7.95 ± 0.10.
For `O=c1cc(/C=C\c2ccc(Cl)cc2Cl)occ1O` [cis-4, (Z)-2-(2,4-dichlorostyryl)-5-hydroxy-4H-pyran-4-one], the “Apparent formation constant lgK'FeL” value in data set [4] (acidic solution) is 4.16 ± 0.10. The “Formation constant lgKFeL, Fe^3+ + L^− ⇌ FeL^2+” value in data set [4] came out at 12.15 ± 0.15. The IC50 in data set [5] was greater than 1000 µM; in data set [2], 1000 ± 10.1 µM; in data set [3], 638 ± 25.8 µM. In data set [6], the “Protonation constant lgK1” value is on record as 7.99 ± 0.15.
Turning to `O=c1cc(C=Cc2cccs2)occ1O` [compound 7, 5-hydroxy-2-(2-(thiophen-2-yl)vinyl)-4H-pyran-4-one], in data set [5], the “DPPH IC50” value is on record as “completely missed any tested bioactivity”. Further, the “AChE IC50” value in data set [2] is “completely missed any tested bioactivity”. The “BChE IC50” value in data set [3] is reported as “completely missed any tested bioactivity”.
As to `O=c1cc(/C=C/c2ccccc2O)occ1O` [trans-1, (E)-5-hydroxy-2-(2-hydroxystyryl)-4H-pyran-4-one], the “Formation constant lgKFeHL, Fe^3+ + H2L ⇌ FeHL^2+ + H^+” value in data set [4] (acidic solution, footnote a) is listed as 4.38 ± 0.20 ^a. The “Formation constant lgKFeHL, Fe^3+ + HL^− ⇌ FeHL^2+” value in data set [4] (calculated with lgK2, footnote b) was 11.6 ± 0.2 ^b. The IC50 in data set [5] was 251 ± 45.6 µM; in data set [2] it was greater than 1000 µM; in data set [3], 601 ± 34.5 µM. The “Protonation constant lgK1” value in data set [6] is reported as 8.9 ± 0.20. For the same compound, in data set [6] (trans-1: proton of the OH group on the pyranone ring), the “Protonation constant lgK2” value is recorded as 7.25 ± 0.20.
On to `O=c1cc(/C=C/c2ccsc2)occ1O` [trans-6, (E)-5-hydroxy-2-(2-(thiophen-3-yl)vinyl)-4H-pyran-4-one], for which the “Apparent formation constant lgK'FeL” value in data set [4] (acidic solution) stood at 4.75 ± 0.10. Further, the “Formation constant lgKFeL, Fe^3+ + L^− ⇌ FeL^2+” value in data set [4] was found to be 12.56 ± 0.15. Further, the concentration for half-maximal inhibition (IC50) in data set [5] was greater than 1000 µM; in data set [2] it was greater than 1000 µM; in data set [3] it was 426 ± 41.8 µM. The “Protonation constant lgK1” value in data set [6] came out at 7.81 ± 0.15.
